Experimental data taken from patent USRE46907E1, “Suppression of cancer growth and metastasis using nordihydroguaiaretic acid derivatives with metabolic modulators” (THE JOHNS HOPKINS UNIVERSITY, priority 2008, dated 2018).

Tests used:
[1] = system: PDK-1/Akt pathway-related proteins; assay: Western blotting of PDK-1/Akt pathway-related proteins in 67NR cells; format: cell-based, mouse; conditions: 5 hrs after treatment
Experimental: (§1) Western blotting: After cells had been grown in […] flasks and treated with reagents, the cells were washed with PBS (−) three times and suspended in RIP A buffer (150 mM NaCl, 50 mM Tris-HCl (pH 8,0), 0.1% SDS, 1% NP40, and 0.5% deoxycholate) supplemented with protease inhibitor cocktail (Calbiochem, San Diego, Calif.). The sample volumes were adjusted by the total protein amount. Protein assay was performed by Bio-Rad Protein Assay (Bio-Rad Laboratories, Inc. Hercules, Calif.). The samples were resolved by the standard SDS-polyacrylamide gel electrophoresis and transferred to nitrocellulose membrane (Amersham Biosciences, Bjorkgatan, Sweden). The membranes were blocked with skim milk, and incubated with primary antibodies at 4° C. overnight and then with secondary antibody conjugated with horse radish peroxidase at room temperature for 2 hrs. The signals were detected by western blot chemiluminescence reagent plus (New England Nuclear Life Science Products, Boston, Mass.).

HIF [2] = assay: Western blotting of HIF in 67NR cells; format: cell-based, mouse; conditions: M4N 80 μM
Experimental: as §1

[3] = system: LNCaP human prostate cancer cells; assay: MTT cell growth assay in LNCaP cells; format: cell-based; conditions: 24 hrs, M4N 80 μM, Ro 5 μM, Ly 20 μM
Experimental: (§2) Cell Culture Either cell line 4T1 or 67NR was a gift from Dr. Miller (20). The cells were cultured in RPMI1640 medium supplemented with glucose (14 mM), pyruvate (1 mM), penicillin (100 units/ml), streptomycin (100 μg/ml), and fetal bovine serum (10%), buffered with 25 mM HEPES (pH 7.4). LNCaP human prostate cancer cell line was purchased from American Type Culture Collection (Manassas, Va.). The cell line was cultured in RPMI1640 medium supplemented with glucose (14 mM), pyruvate (1 mM), penicillin (100 units/ml), streptomycin (100 μg/ml), and fetal bovine serum (10%). Drugs were dissolved in dimethyl sulfoxide (DMSO) at a suitable concentration so that the final concentration of DMSO in the medium was less than 0.1%.
MTT assay: Cells were incubated in PBS (−) supplemented with 5% fetal calf serum and 0.5 mg/ml MTT, 3-(4,5-Dimethylthiazol-2-yl)-2,5-diphenyltetrazolium bromide (Sigma, Saint Louis, Mo.) for 2 hrs. After the incubation, the cells were dissolved in dimethyl sulfoxide and the color of the solutions was measured by a spectrophotometer at wavelengths of 540 and 690 nm. The values correlated with viable cell numbers were obtained by subtracting the optical density at 690 nm from that, at 540 nm.

4T1 cells [4] = assay: TUNEL apoptosis assay in 4T1 cells; format: cell-based, mouse; conditions: 4T1, 48 hr after treatment, M4N 80 μM
Experimental: as §2
Apoptosis assay: Simple TLTNEL assay was conducted by using TUNEL apoptosis detection kit (Upstate, Temecula, Calif.) with some modification. For the evaluation of the effect of PKCδ wild type and dominant negative vectors on TUNEL-positive cell death, we first transfected 4T1 or 67NR cells with these vectors by effectene (Qiagen, Valencia, Calif.). Wild type PKCδ vector is constructed from wild type PKCδ gene and pEGFP (Promega, Madison, Wis.). Dominant negative PKCδ vector is constructed from PKCδ gene mutated at a 376th amino acid residue (threonine) and pEGFP (Promega, Madison, Wis.) This threonine residue is located in ATP-binding domain of protein kinase Cδ, and therefore essential for any kinase reaction of the protein so that this mutant protein supposedly function as dominant negative. As a control we used pEGFP-N3 vector was used. These vectors contain green fluorescent protein (GFP) gene to be used as a transfection marker. The vectors are kind gifts from Dr. Yuspa (National Institutes of Health, Bethesda, Md.) (88). Twenty four hours after transfection, the cells were treated with M4N, Rottlerin, or Ly294002. Then 24 hrs after this treatment with these reagents, the cells were fixed with 10% formaldehyde in phosphate buffered saline without calcium and magnesium (PBS (−)). The cells were then incubated with rabbit anti-GFP antibody (MBL International, Woburn, Mass.) followed by treatment with anti-rabbit IgG antibody conjugated with fluorescein (Promega, Madison, Wis.). TUNEL staining was conducted by using TUNEL apoptosis detection kit (Upstate, Temecula, Calif.) except for using Streptavidin-Alexa Fluor 568 (Molecular Probes, Eugene, Oreg.) instead of Avidine-Rhodamine contained in the kit. Cell death was evaluated by dividing the number of TUNEL-positive cells among the cells positive with anti-GFP staining by the number of these GFP-positive cells.

67NR cells = assay: 67NR tumor-bearing Balb/c mice (life-span); format: in vivo, mouse; conditions: 5×10^4 cells, M4N 1 mg/shot, Rottlerin 100 μg/shot, three days a week from day 8
Experimental: (§3) Animals: Female Balb/e mice were obtained from Charles River Laboratories (Wilmington, Mass.). M4N and Rottlerin were dissolved into a solvent, CPE (25/30) solvent system supplied by Erimos Pharmaceutical, L.L.C. (Raleigh, N.C.) and injected into mice either intravenously or intraperitoneally, T-cell deficient male nude mice (nu/nu) were obtained from Charles River Laboratories (Wilmington, Mass.). M4N and Ly294002 were dissolved into a solvent, CPE (25/30) solvent system supplied by Erimos Pharmaceutical, L.L.C. (Raleigh, N.C.) and injected into mice intravenously.
(§4) Tumor inoculation: Either 4T1 or 67NR cells were grown as described above. Cells growing subconfluently were collected and resuspended into the tissue culture medium minus fetal bovine serum and antibiotics, After counting the number of the cells, the cell concentration was adjusted. Twenty μl of the solution containing a selected number of cancer cells (either 5×10^3 or 5×10^4 cells) was injected into each fat pad of a pair of mammary glands located close to lower limbs. Tumor size was measured by weighing tumors extracted from mouse cadavers.

PKCδ [5] = assay: Immunocytochemistry of PKCδ cellular localization in 4T1 cells; format: cell-based, mouse; conditions: 4T1, 5 hrs
Experimental: (§5) Immunocytocheimstry: Cells were cultured on glass cover slips coated with poly-L-ornithine (Sigma, Saint Louis, Mo.). At 5 hrs after treatment with drugs, the cells were fixed with 10% formaldehyde in diluted in PBS (−) and washed with PBS (−) three times. After permeabilized by 0.2% Tryton X-100 and 1% goat serum diluted in PBS (−), the cells were blocked by PBS (−) containing 5% goat serum. The cells were then incubated with primary antibodies diluted in PBS (−) containing 0.5% bovine serum albumin (BSA), and with secondary antibodies, which is either anti-IgG conjugated with fluorescein (Vector Laboratories. Burlingame, Calif.), diluted in PBS (−) containing 0.5% BSA. The cells were observed through Zeiss fluorescent microscope (Carl Zeiss, Thornwood, N.Y.).

HIF [6] = assay: Western blotting of HIF in 4T1 cells; format: cell-based, mouse; conditions: 4T1, M4N 80 μM
Experimental: as §1

PKCδ [7] = assay: Immunocytochemistry of PKCδ cellular localization in LNCaP cells; format: cell-based, human; conditions: 5 hrs
Experimental: as §5

4T1 cells [8] = assay: 4T1 tumor-bearing Balb/c mice (life-span, tumor size); format: in vivo, mouse; conditions: 5×10^4 cells, M4N 1 mg/shot, Rottlerin 100 μg/shot, three days a week from day 7
Experimental: as §3, §4

Structure (SMILES): COc1ccc(C[C@@H](C)[C@@H](C)Cc2ccc(OC)c(OC)c2)cc1OC [M4N, tetra-O-methyl nordihydroguaiaretic acid]
- total Akt expression [1]: not changed much
- expression of phosphorylated PDK (Ser241), Akt (Ser473), PRAS40 (Thr246), Raf (Ser259), MEK (Ser217/221) ([1]; M4N 80 μM): significant reduction
- effect on Desferoxamine-mediated HIF induction (HIF [2]): instead enhanced
- cell growth (MTT) [3]: able to reduce cell growth almost as much as a combination treatment
- TUNEL-positive cell death (4T1 cells [4]): did not detect many TUNEL-positive cells
- life-span of 67NR-bearing mice (67NR cells): didn't have much effect on the life-span
- cellular distribution / nuclear staining of total PKCδ (PKCδ [5]): did not change much
- nuclear staining for phosphor-PKCδ (Thr505) in the presence of Des (PKCδ [5]; with Desferoxamine 150 μM): markedly augmented nuclear staining
- nuclear staining for phosphor-PKCδ (Thr505) (PKCδ [5]; without Desferoxamine co-treatment): augmented staining
- effect on Desferoxamine-mediated HIF induction (HIF [6]): slightly suppressed
- expression and nuclear level of total PKCδ (PKCδ [7]): Neither M4N, Ro, nor Ly treatment caused any remarkable change
- nuclear expression of phosphor-PKCδ (Thr507) (PKCδ [7]): augmented
- life-span of 4T1-bearing mice (4T1 cells [8]): didn't extend the life-span
